This passage reports GI50 results from US20260159520A1, “HETEROBIFUNCTIONAL COMPOUNDS AND METHODS OF TREATING DISEASE” (Halda Therapeutics OpCo, Inc., priority 2022, published 2026).

In general, GI50 refers to the concentration giving 50% growth inhibition. A high value points to less potent growth inhibition.

Type in all cases: cell-based
The subject of assay [1] is T-Rex 293 cell line SC3 cells lacking increased expression of androgen receptor protein. Briefly: Cellular growth inhibition, T-Rex 293 SC3 cells without doxycycline. As to conditions: not exposed to doxycycline, 72 hours, CellTiter-Glo 2.0. How it is done: (§1) The following types of cells were prepared for this experiment: (i) a T-Rex 293 cell line having increased expression of androgen receptor protein due to exposure to doxycycline and (ii) a T-Rex 293 cell line lacking increased expression of androgen receptor protein. Ability of the test compounds to inhibit proliferation of the foregoing cell types was evaluated according to the procedures set forth below.
(§2) The doxycycline-inducible androgen receptor protein expressing cell line was established using the following protocol: T-Rex 293 cells were purchased from Invitrogen (Cat #R71007) and transfected using Lipofectamine 2000 with the wild-type androgen receptor protein sequence cloned into the pcDNA4/TO vector. Transfected cells were selected using 400 μg/mL Zeocin (Invitrogen Cat #R25001). Following selection, single clones were raised and maintained in Dulbecco's Modified Eagle Medium (DMEM) supplemented with 10% w/w Tetracycline-free fetal bovine serum (FBS) and 250 μg/mL Zeocin. Clones were analyzed for expression of androgen receptor protein in the presence and absence of 10 ng/mL doxycycline (Sigma Cat #D9891), and a single doxycycline-inducible clone (hereinafter “SC3”) was selected for use in downstream assays.
(§3) The SC3 cells were seeded on poly-D-lysine coated, black clear-bottom 384-well plates at 2500/well, in 25 μL Phenol Red Free Dulbecco's Modified Eagle Medium (DMEM) supplemented with 10% w/w charcoal-dextran treated fetal bovine serum (FBS) and 1% w/w pen-strep, with or without 10 ng/mL doxycycline. Pen-Strep is a commercially available mixture of penicillin G and streptomycin, which is used in mammalian cell culture media to prevent bacterial contamination. Phenol Red Free Dulbecco's Modified Eagle Medium (DMEM) supplemented with 10% w/w charcoal-dextran treated fetal bovine serum (FBS) and 1% w/w pen-strep, with or without 10 ng/mL doxycycline is herein referred to as Treatment Medium. Following seeding of cells in the plates, the plates were spun at 300×g for 30 seconds, then equilibrated to room temperature for 30 minutes, and then deposited in a humidified tissue culture incubator maintained at 37° C. with 5% CO2.
(§4) At 24 hours after seeding of the cells, dilutions of test compound were prepared in DMSO and dissolved in Treatment Medium, to achieve a final DMSO concentration of 0.5% w/w, thereby providing the Test Compound Solution. A 25 μL aliquot of the Test Compound Solution was added to cells in the well plates. An equal volume of a solution containing DMSO and Treatment Medium was used as a negative control. Following treatment of cells with Test Compound Solution or said equal volume of a solution containing DMSO and Treatment Medium, the plates were spun at 300×g for 30 seconds, and then left in an incubator for 72 hours.
(§5) At the end of the treatment duration, cell viability was quantified with CellTiter-Glo 2.0 reagent (Promega Cat #G9243). For this purpose, plates were equilibrated to room temperature for 30 minutes, and then 25 μL of CellTiter-Glo 2.0 reagent was added to cells in the plate wells. Plates were then agitated on a shaker for two minutes at 500 rpm and subsequently incubated at room temperature for 10 minutes. Following incubation, the plates were spun at 3000×g for 30 seconds, then sealed with an optical adhesive cover, and luminescence readings were measured with an EnVision Plate Reader.
(§6) Data was normalized using zero luminescence for baseline. A four-parameter non-linear regression curve fit was applied to dose-response data in GraphPad Prism data analysis software to determine the half-maximal growth inhibitory concentration (GI50) for each test compound.

Assay [2] relates to VCaP cells. Briefly: Cellular growth inhibition assay for VCaP cells. Conditions: Homo sapiens, 72 hours, CellTiter-Glo 2.0. As for the experimental part: VCaP cells were purchased from American Type Cell Culture (ATCC Cat #CRL2876) and then seeded on poly-D-lysine coated, black clear-bottom 384-well plates at 5000/well in 25 μL Dulbecco's Modified Eagle Medium (DMEM) supplemented with 10% w/w Fetal bovine serum (FBS) and 1% w/w Pen-Strep. Pen-Strep is a commercially available mixture of penicillin G and streptomycin, which is used in mammalian cell culture media to prevent bacterial contamination. Dulbecco's Modified Eagle Medium (DMEM) supplemented with 10% w/w fetal bovine serum (FBS) and 1% w/w Pen-Strep is herein referred to as Treatment Medium. Following seeding of cells in the plates, the plates were spun at 300×g for 30 seconds, then equilibrated to room temperature for 30 minutes, and then deposited in a humidified tissue culture incubator maintained at 37° C. with 5% CO2.
as §4
as §5, with “Reader. Data was normalized using zero luminescence for baseline.” for “Reader.”
A four-parameter non-linear regression curve fit was applied to dose-response data in GraphPad Prism data analysis software to determine the half-maximal growth inhibitory concentration (GI50) for each test compound.
For orientation: Cellular ATP, detected with luciferase, serves as a proxy for viable cell number.

Assay [3] has as its system T47D cells. Briefly: Cellular growth inhibition assay for T47D cells. As to conditions: Homo sapiens, 72 hours, CellTiter-Glo 2.0. As for the experimental part: T47D cells were purchased from American Type Cell Culture (ATCC Cat #HTB-133) and then seeded on poly-D-lysine coated, black clear-bottom 384-well plates at 3000/well in 25 μL Dulbecco's Modified Eagle Medium (DMEM) supplemented with 10% w/w Fetal bovine serum (FBS), 0.2 units/mL recombinant human insulin (Gibco Cat #12585014), and 1% w/w Pen-Strep. Pen-Strep is a commercially available mixture of penicillin G and streptomycin, which is used in mammalian cell culture media to prevent bacterial contamination. Dulbecco's Modified Eagle Medium (DMEM) supplemented with 10% w/w fetal bovine serum (FBS), 0.2 units/mL recombinant human insulin, and 1% w/w Pen-Strep is herein referred to as Treatment Medium. Following seeding of cells in the plates, the plates were spun at 300×g for 30 seconds, then equilibrated to room temperature for 30 minutes, and then deposited in a humidified tissue culture incubator maintained at 37° C. with 5% CO2.
as §4
as §5, with “Reader (Perkin Elmer).” for “Reader.”
as §6

For assay [4], the system named is T-Rex 293 cell line SC3 cells having increased expression of androgen receptor protein. Briefly: Cellular growth inhibition, T-Rex 293 SC3 cells with doxycycline (increased androgen receptor expression). As to conditions: with 10 ng/mL doxycycline (increased androgen receptor), 72 hours, CellTiter-Glo 2.0. How it is done:
as §1, §2, §3, §4, §5, §6

For the compound `CCc1cnn2c(NCc3ccc(N4CCN(C5CCN(C6CN(c7ncc(C(=O)N[C@H]8C(C)(C)[C@H](Oc9ccc(C#N)c(Cl)c9)C8(C)C)cn7)C6)CC5)CC4)nc3)cc(N3CCCC[C@H]3CCO)nc12` [Compound I-79], the GI50 in assay [1] is less than 100 nM; in assay [2], less than 100 nM; in assay [3] it was less than 500 nM; in assay [4], less than 100 nM.

For the compound `CCc1cnn2c(NCc3ccc(N(C)CCCN4CCC(C5CN(c6ncc(C(=O)N[C@H]7C(C)(C)[C@H](Oc8ccc(C#N)c(Cl)c8)C7(C)C)cn6)C5)CC4)nc3)cc(N3CCCC[C@H]3CCO)nc12` [Compound I-82], the GI50 in assay [1] lay in the range of 100 to 1000 nM; in assay [2], 100 to 1000 nM; in assay [3], 500 to 1500 nM; in assay [4] it was 100 to 1000 nM.

On to `COc1cc(F)ccc1-c1ccnc2[nH]c(C3CCN(CCOCCOCCOC4CCN(c5ncc(C(=O)N[C@H]6C(C)(C)[C@H](Oc7ccc(C#N)c(Cl)c7)C6(C)C)cn5)CC4)CC3)cc12` [Compound I-67, N-[3-(3-chloro-4-cyano-phenoxy)-2,2,4,4-tetramethyl-cyclobutyl]-2-[4-[2-[2-[2-[4-[4-(4-fluoro-2-methoxy-phenyl)-1H-pyrrolo[2,3-b]pyridin-2-yl]-1-piperidyl]ethoxy]ethoxy]ethoxy]-1-piperidyl]pyrimidine-5-carboxamide], for which the GI50 in assay [1] was 1000 to 3500 nM; in assay [2], more than 3500 nM; in assay [3], 1500 to 3000 nM; in assay [4], 100 to 1000 nM.

For `CCc1cnn2c(NCc3ccc(OCCCN4CCN(CC5CCN(c6ncc(C(=O)N[C@H]7C(C)(C)[C@H](Oc8ccc(C#N)c(Cl)c8)C7(C)C)cn6)CC5)CC4)nc3)cc(N3CCCC(F)(F)C3)nc12` [Compound I-92], the 50% growth inhibitory concentration (GI50) in assay [1] was in the range of 1000 to 3500 nM; in assay [2], 100 to 1000 nM; in assay [3], 500 to 1500 nM; in assay [4], 100 to 1000 nM.

Turning to `CCc1cnn2c(NCc3ccc(N4CC(N5CCN(C6CCN(c7ncc(C(=O)N[C@H]8C(C)(C)[C@H](Oc9ccc(C#N)c(Cl)c9)C8(C)C)cn7)CC6)CC5)C4)nc3)cc(N3CCCC[C@H]3CCO)nc12` [Compound I-65], the 50% growth inhibitory concentration (GI50) in assay [1] is less than 100 nM; in assay [2] it was less than 100 nM; in assay [3] it was less than 500 nM; in assay [4], less than 100 nM.

For `CCc1cnn2c(NCc3ccc(OCCN4CCN(CC5CCN(c6ncc(C(=O)N[C@H]7C(C)(C)[C@H](Oc8ccc(C#N)c(Cl)c8)C7(C)C)cn6)CC5)CC4)nc3)cc(N3CCCC(F)(F)C3)nc12` [Compound I-91], the GI50 in assay [1] was more than 3500 nM; in assay [2], more than 3500 nM; in assay [3], 500 to 1500 nM; in assay [4], 100 to 1000 nM.

Consider `CCc1cnn2c(NCc3ccc(OCCCN4CCN(CC5CCN(c6ncc(C(=O)N[C@H]7C(C)(C)[C@H](Oc8ccc(C#N)c(Cl)c8)C7(C)C)cn6)CC5)CC4)nc3)cc(N3CCCCC3)nc12` [Compound I-50, N-((1 r,3r)-3-(3-chloro-4-cyanophenoxy)-2,2,4,4-tetramethylcyclobutyl)-2-(4-((4-(3-((5-(((3-ethyl-5-(piperidin-1-yl)pyrazolo[1,5-a]pyrimidin-7-yl)amino)methyl)pyridin-2-yl)oxy)propyl)piperazin-1-yl)methyl)piperidin-1-yl)pyrimidine-5-carboxamide], for which the concentration for 50% growth inhibition (GI50) is more than 3500 nM in assay [1], more than 3500 nM in assay [2], more than 3000 nM in assay [3] and 100 to 1000 nM in assay [4].

As to `CN(CCNS(=O)(=O)c1ccc(Nc2ncc(Br)c(Nc3cccc(F)c3C(N)=O)n2)cc1)c1ncc(C(=O)N[C@H]2C(C)(C)[C@H](Oc3ccc(C#N)c(Cl)c3)C2(C)C)cn1` [Compound I-18, 2-((2-((4-((5-bromo-4-((2-carbamoyl-3-fluorophenyl)amino)pyrimidin-2-yl)amino)phenyl)sulfonamido)ethyl)(methyl)amino)-N-((1r,3r)-3-(3-chloro-4-cyanophenoxy)-2,2,4,4-tetramethylcyclobutyl)pyrimidine-5-carboxamide], the 50% growth inhibitory concentration (GI50) is 100 to 1000 nM in assay [1], less than 500 nM in assay [3] and 100 to 1000 nM in assay [4].

Take `CCc1cnn2c(NCc3ccc(OCCOC4CCN(c5ncc(C(=O)N[C@H]6C(C)(C)[C@H](Oc7ccc(C#N)c(Cl)c7)C6(C)C)cn5)CC4)nc3)cc(N3CCCC(F)(F)C3)nc12` [Compound I-84, N-[3-(3-chloro-4-cyano-phenoxy)-2,2,4,4-tetramethyl-cyclobutyl]-2-[4-[2-[[5-[[[5-(3,3-difluoro-1-piperidyl)-3-ethyl-pyrazolo[1,5-a]pyrimidin-7-yl]amino]methyl]-2-pyridyl]oxy]ethoxy]-1-piperidyl]pyrimidine-5-carboxamide]: the 50% growth inhibitory concentration (GI50) is more than 3500 nM in assay [1], more than 3500 nM in assay [2], 1500 to 3000 nM in assay [3] and 100 to 1000 nM in assay [4].

With `CCc1cnn2c(NCc3ccc(N4CC(N5CCC(N6CCN(c7ncc(C(=O)N[C@H]8C(C)(C)[C@H](Oc9ccc(C#N)c(Cl)c9)C8(C)C)cn7)CC6)CC5)C4)nc3)cc(N3CCCC[C@H]3CCO)nc12` [Compound I-64], the concentration for 50% growth inhibition (GI50) in assay [1] is less than 100 nM; in assay [2], less than 100 nM; in assay [3], less than 500 nM; in assay [4], less than 100 nM.

Consider `CN(CCOCCOCCNS(=O)(=O)c1ccc(Nc2ncc(Br)c(Nc3cccc(F)c3C(N)=O)n2)cc1)c1ncc(C(=O)N[C@H]2C(C)(C)[C@H](Oc3ccc(C#N)c(Cl)c3)C2(C)C)cn1` [Compound I-19], for which the 50% growth inhibitory concentration (GI50) was more than 3500 nM in assay [1], less than 500 nM in assay [3] and more than 3500 nM in assay [4].

`CCc1cnn2c(NCc3ccc(N(C)CCCN4CCN(C5CN(c6ncc(C(=O)N[C@H]7C(C)(C)[C@H](Oc8ccc(C#N)c(Cl)c8)C7(C)C)cn6)C5)CC4)nc3)cc(N3CCCC[C@H]3CCO)nc12` [Compound I-81] came in with a 50% growth inhibitory concentration (GI50) in assay [3] of less than 500 nM.
